Source: patent US20260315452A1, “PROTEASE INHIBITORS AND USES THEREOF” (priority 2023, published 2026)

What was measured:
[1] = target: T1, SARS-CoV-2 3CLpro (Severe acute respiratory syndrome coronavirus 2, UniProt P0DTD1); assay type: binding; details: ITC, 25° C., pH 7.4; versus Ref-2 (compound P2)
[2] = test system: SARS-CoV-2; assay: Anti-SARS-CoV-2 activity in A549 cells expressing the human ACE2 receptor (inhibition of SARS-CoV-2 replication); assay type: cell-based; details: for antiviral potency in A549 cells in comparison with compound Ref-2: versus Ref-2 (FIG. 7); for EC50: Severe acute respiratory syndrome coronavirus 2, A549-ACE2, 24 h, read-out: Antiviral Activity (EC50)
[3] = target: T1, SARS-CoV-2 3CLpro; assay: biochemical; details: inhibition of SARS-CoV-2 3CLpro; 15 nM 3CLpro, 25 μM fluorogenic substrate, 37° C.; read-out: Inhibitory Activity (IC50)
[4] = target: T1, SARS-CoV-2 3CLpro; assay: Co-crystal structure with SARS-CoV-2 3CLpro; assay type: binding; details: co-crystal with SARS-CoV-2 3CLpro
[5] = Plasma protein binding (PPB) by equilibrium dialysis; assay type: in vitro ADME; details: human and mouse plasma, 4 hours, 37° C., versus Ref-2
Method: The binding of compounds Ref-2, 86, 97, 98 and 170 to human and mouse plasma were measured using equilibrium dialysis. A loading matrix was prepared by diluting of a 400 μM stock of each of the compounds in DMSO by the plasma matrix. To prepare the time zero (To) samples to be used for recovery determination, 50 μL of the loading matrix were transferred in triplicate to the sample collection plate, immediately matched with opposite blank buffer to obtain a final volume of 100 μL of 1:1 matrix/dialysis buffer (v/v) in each well, followed by the addition of 500 μL of stop solution (200 ng/mL of tolbutamide, 200 ng/mL of labetalol, and 50 ng/mL of metformin in acetonitrile) and then stored at 2-8° C. pending further processes along with other post-dialysis samples. To load the dialysis device, 150 μL of the loading matrix and 150 μL of the dialysis buffer were transferred to the donor side and the receiver side of each well, respectively. The dialysis plate was placed in a humidified incubator at 37° C. with 5% CO2 on a shaking platform that rotated slowly (about 100 rpm) for 4 hours, then 50 μL of samples were taken from both the buffer side and the matrix side, and transferred into new 96-well plates. Each sample was mixed with an equal volume of opposite blank buffer (or matrix) to reach a final volume of 100 μL, followed by the addition of 500 µL of stop solution. The mixture was vortexed and centrifuged at 4000 rpm for about 20 minutes, then […] of the supernatant of each sample was removed for LC-MS/MS analysis. The single blank samples were prepared by transferring 50 μL of blank matrix to a 96 well plate and adding 50 μL of blank PBS buffer to each well. The blank plasma must match the species of plasma used in the plasma side of the well. Then the matrix-matched samples were further processed by adding 500 μL of stop solution, following the same sample processing method as the dialysis samples. The % Unbound, % Bound and % Recovery were calculated using the following equations: […]
in which F is the analyte concentration or peak area ratio of analyte/internal standard on the buffer (receiver) side of the membrane, T is the analyte concentration or peak area ratio of analyte/internal standard on the matrix (donor) side of the membrane, and T0 is the analyte concentration or the peak area ratio of analyte/internal standard in the loading matrix sample at time zero.

[6] = test system: CYP1A2, CYP2C9, CYP2C19, CYP2D6 and CYP3A4; assay: CYP inhibition evaluation in human liver microsomes; assay type: in vitro ADME; details: CYP1A2, 2C9, 2C19, 2D6, 3A4, up to 50 μM
Method: 20 μL of the substrate solutions of CYP1A2, CYP2C9, CYP2C19, CYP2D6 and CYP3A4 were each mixed with […] of the test compounds (final concentrations: 50 μM, 15 μM, 5 μM, 1.5 μM, 0.5 μM, 0.15 μM, 0.05 μM, 0 μM), followed by the addition of 158 μL of the HLM (Human liver microsome) working solution. Each of the mixtures was incubated at 37° C. for 10 minutes, and then mixed with 20 μL of NADPH cofactor, followed by incubation at 37° C. for additional 10 minutes. The reactions were terminated by adding 400 μL cold stop solution (200 ng/mL Tolbutamide and Labetalol in ACN). The samples are centrifuged at 4000 rpm for 20 minutes to precipitate protein. Next, 200 μL of the supernatant of each sample was transferred to 100 μL HPLC water and shaken for 10 minutes, and then analyzed by LC/MS/MS.

[7] = test system: Omicron SARS-CoV-2; details: FIG. 8, with Ref-2

| Structure (SMILES) | binding affinity (dissociation constant, Kd) in comparison with compound Ref-2 [1] | antiviral potency in A549 cells in comparison with compound Ref-2 [2] | EC50 [2] | IC50 [3] | binding site/mode in crystal structure [4] | free PPB ratio in comparison with compound Ref-2 [5] | effect on different CYP isoforms [6] | activity against Omicron SARS-CoV-2 in Caco-2 cells [7] |
| --- | --- | --- | --- | --- | --- | --- | --- | --- |
| O=C(NC1CC(F)(F)C1)c1cc(Br)cc([N+](=O)[O-])c1N[C@H]1CN(C(=O)c2cncc3ccccc23)CC12CC2 [Compound 30, (R)-5-bromo-N-(3,3-difluorocyclobutyl)-2-((5-(isoquinoline-4-carbonyl)-5-azaspiro[2.4]heptan-7-yl)amino)-3-nitrobenzamide] | higher binding affinity | better antiviral potency | < 100 nM | < 100 nM |  |  |  |  |
| CNC(=O)c1cc(Br)cc([N+](=O)[O-])c1N[C@H]1CN(C(=O)c2cncc3ccccc23)CCC1(F)F [Compound 19, (S)-5-bromo-2-((4,4-difluoro-1-(isoquinoline-4-carbonyl)piperidin-3-yl)amino)-N-methyl-3-nitrobenzamide] | higher binding affinity | better antiviral potency | < 100 nM | < 100 nM | bound into the catalytic pocket of 3CLpro |  |  |  |
| CNC(=O)c1cc(Cl)cc([N+](=O)[O-])c1N[C@H]1CN(C(=O)c2cncc3ccn(C)c23)CCC1(F)F [Compound 86, (S)-5-chloro-2-((4,4-difluoro-1-(1-methyl-1H-pyrrolo [3,2-c]pyridine-7-carbonyl)piperidin-3-yl)amino)-N-methyl-3-nitrobenzamide] |  |  |  | < 100 nM |  | better free PPB ratios |  |  |
| CNC(=O)c1cc(Cl)cc([N+](=O)[O-])c1N[C@H]1CN(C(=O)c2cncc3cccnc23)CC[C@@H]1F [Compound 170, 5-chloro-2-(((3S, 4S)-4-fluoro-1-(1,6-naphthyridine-8-carbonyl)piperidin-3-yl)amino)-N-methyl-3-nitrobenzamide] |  |  |  | < 100 nM |  | better free PPB ratios | little effect on different CYP isoforms |  |
| CNC(=O)c1cc(Cl)cc([N+](=O)[O-])c1N[C@H]1CN(C(=O)c2cncc3cccnc23)CCC1(F)F [Compound 98, (S)-5-chloro-2-((4,4-difluoro-1-(1,6-naphthyridine-8-carbonyl)piperidin-3-yl)amino)-N-methyl-3-nitrobenzamide] |  |  | < 100 nM | < 100 nM | bind to 3CLpro similar to that of Compound 19 | better free PPB ratios | little effect on different CYP isoforms | stronger activity against Omicron SARS-CoV-2 |
| CNC(=O)c1cc(Cl)cc([N+](=O)[O-])c1N[C@H]1CN(C(=O)c2cncc3ccncc23)CCC1(F)F [Compound 97, (S)-5-chloro-2-((4,4-difluoro-1-(2,6-naphthyridine-4-carbonyl)piperidin-3-yl)amino)-N-methyl-3-nitrobenzamide] |  |  |  | < 100 nM |  | better free PPB ratios | little effect on different CYP isoforms |  |
